The subject of one series is Mucorales Mucor species. Kind of series: In vitro susceptibility (MIC), macrobroth dilution. In kind it is cell-based. To be noted: Mucor sp. 13-127, drug alone; for MIC50: lowest concentration causing 50% decrease in growth vs untreated control; for MIC100: lowest concentration without growth.
Series [1] has as its system A549 human lung cancer cells. The format is cell-based. The following applies: 48 h, 10 %. As for the experimental part:
Cytotoxicity assay: Cytotoxicity assays in A549 human lung cancer cells were performed using XTT assay as indicated in the manufacturers' instructions. Cells (2×10^5 cells/well) were seeded in 96-well tissue plates and incubated in Dulbecco's Modified Eagle Medium (DMEM) culture medium. After 24 hours of incubation, the cells were treated with BRI (40 and 80 μM/well), CAS (50, 100 and 200 μg/well) or in different CAS+BRI combinations. After 48 hours incubation, the cell viability was assessed by using the XTT kit (Roche Applied Science) according to the manufacturer's instructions. Formazan formation was quantified spectrophotometrically at 450 nm (reference wavelength 620 nm) using a microplate reader. The experiment was made in three replicates. Viability was calculated using the background-corrected absorbance as follows: Cell viability (%)=absorbance value of experiment well/absorbance value of control well×100.

For series [2], the system named is A. fumigatus. The series is described as follows: Alamar blue metabolic activity assay. In kind it is cell-based, Aspergillus fumigatus. The following applies: for interaction with BRI in inhibition of metabolic activity (Alamar blue): increasing concentrations + BRI 20 μM, 48 hours.
The subject of series [3] is A. fumigatus. The series is described as follows: Protein kinase inhibitor (PKI) library screen with or without BRI. The following applies: for growth, PKI (20 μM): PKI 20 μM alone; for growth, PKI (20 μM) + BRI (20 μM): PKI 20 μM together with BRI 20 μM.
Description: A protein kinase inhibitors (PKI) library was also screened in combination with BRI. In total, 58 PKI were analyzed. Briefly, 100 μL of liquid MM containing 2.5×10^3 conidia/mL of the A. fumigatus wild-type strain plus 10% alamar blue was inoculated with increasing concentration of PKI (5-80 μM) in the presence (or not) of BRI (20μM) and incubated 48 hours at 37° C. without shaking. […] Plates were incubated for 48 hours at 37° C. without shaking. All experiments containing alamar blue were, after 48 hours incubation, read spectrophotometically by fluorescence and analyzed as previously described. Experiments were repeated at least three times.
To assess the mechanism of action of BRI, a collection of 58 protein kinase inhibitors (PKI, at a concentration of 20 μM; Table 4) was screened for A. fumigatus growth and corresponding metabolic activity alone or together with 20 μM BRI (Table 4).
The subject of the next series is Cryptococcus neoformans. The series is described as follows: In vitro susceptibility (MIC), macrobroth dilution. The format is cell-based. The following applies: C. neoformans CN9759, drug alone.
For a further series, the system named is Aspergillus fumigatus. Kind of series: In vitro susceptibility (MIC), macrobroth dilution. In kind it is cell-based. The following applies: drug alone; for MIC50: lowest concentration causing 50% decrease in growth vs untreated control; for MIC100: lowest concentration without growth.
The test system of another series is Candida albicans. Kind of series: In vitro susceptibility (MIC), macrobroth dilution. The format is cell-based. The following applies: C. albicans 5, drug alone.
In series [4] the test system is A. fumigatus. The series is described as follows: MIC/MEC, CLSI M38-A2. The format is cell-based, Aspergillus fumigatus. To be noted: Aspergillus fumigatus, read-out: MIC VOR.
For series [5], the system named is A. fumigatus conidia infecting A549 pulmonary cells. Kind of series: Killing assay in infected A549 cells. The format is cell-based, Aspergillus fumigatus. The following applies: monotherapy. As for the experimental part:
Killing assay: The type II pneumocyte cell line A549 was cultured using DMEM (ThermoFischer Scientific, Paisley. […] After 24 hours of incubation in 5% CO2 the culture media was removed, and 2 ml of sterile water was added to the wells. A P1000 tip was then used to scrape away the cell monolayer and the cell suspension was collected. This suspension was then diluted 1:1000 and 100 μl was plated on Sabouraud Dextrose Agar Media before the plates were incubated a 37° C. overnight. The numbers of CFUs were determined after 24 hours of growth. A volume of 50 μl of the inoculum adjusted to 103/ml was also plated on SAB agar to correct CFU counts. The CFU percentage for each sample was calculated and the results were plotted using Graphpad Prism (GraphPad Software, Inc., La Jolla, CA, USA).

In a further series the test system is A. fumigatus biofilms. The series is described as follows: Biofilm assay (XTT). To be noted: Aspergillus fumigatus, read-out: inhibition of biofilm formation.
For series [6], the system named is A. fumigatus clinical isolates. The series is described as follows: Growth inhibition of clinical isolates by CAS, VOR, BRI and combinations. To be noted: strain CYP15-15-109, VOR.
The mark [7] stands for this setting: lowest concentration causing 50% decrease in growth vs untreated control.
[8] abbreviates: lowest concentration without growth.

In brackets after ≈: the same amount, converted by molar mass. Read-outs that look alike come from different tables or passages of the source. Numbered stars: 1 amine (or outer) side, 2 acyl side, 3 side chain; on linkers, the order of the positions; unused ones are H or OH. Bridge positions count the residues as written; N and C are the ends. Square brackets hold non-standard residues; d marks the D form. Peptide text beside a SMILES is read from it. * marks the point of attachment. hTyr(3S-OH,4S-OH,3'-OSO3H) = N[C@H](C(=O)O)[C@H](O)[C@@H](O)c1ccc(O)c(OS(=O)(=O)O)c1; Orn(4R-OH,5R-OH) = O=C([C@H](C[C@@H](O)[C@@H](O)N[*:3])N[*:1])[*:2]; Pro(3S-OH,4S-Me) = C[C@H]1CN[C@H](C(=O)O)[C@H]1O; X1 = CCCCCOc1ccc(-c2cc(-c3ccc(C(=O)*)cc3)no2)cc1; Gln(3R-OH) = NC(=O)C[C@@H](O)[C@H](N)C(=O)O; Hyp = O=C(O)[C@@H]1C[C@@H](O)CN1

Description for A. fumigatus biofilms: Biofilm assay: To test the susceptibility of pre-formed A. fumigatus biofilms to
VOR, CAS and to the combination of CAS+BRI and VOR+BRI, a suspension containing 10^6 conidia per mL of the wild-type strain (Δku80 pyrG^+) was prepared in liquid MM and 100 μL of it was inoculated in each well of a 96-well plate. After 24 hours of incubation at 37° C., 50 μL of fresh MM containing CAS, VOR or the combination of VOR and CAS with BRI was added to the biofilm to reach the final concentration as indicated and incubated for a further 12 hours at 37° C. Wells containing untreated conidia were used as a positive control. After, the metabolic activity of the cells was evaluated by adding 50 μL of an aqueous XTT solution (1 mg/mL of XTT and 125 μM of menadione) to each well. The plate was incubated for additional 1 hour at 37° C., centrifuged (2000 rpm, 5 minutes) and 100 μL of the supernatant was transferred to a flat-bottomed 96-well plate. The absorbance was measured at 450 nm on a plate reader (Synergy HTX Multi-Mode Reader- BioTek Instruments). The XTT assay's were performed in six replicates.

In the series with Mucorales Mucor species, `C[C@@H]1[C@H](O)[C@@H](C)/C=C/C=C/C=C/C=C/C=C/C=C/C=C/[C@H](O[C@@H]2O[C@H](C)[C@@H](O)[C@H](N)[C@@H]2O)C[C@@H]2O[C@](O)(C[C@@H](O)C[C@@H](O)[C@H](O)CC[C@@H](O)C[C@@H](O)CC(=O)O[C@H]1C)C[C@H](O)[C@H]2C(=O)O` [Amphotericin B (AMPB)] came in with an MIC50 of 0.25 µg/mL (≈ 0.271 µM) and an MIC100 of 0.5 µg/mL (≈ 0.541 µM).

As for `C[S+](C)[O-]` [DMSO, dimethyl sulfoxide], the “reduction of cell viability” value in series [1] is listed as 80%.

Take `CCn1c(=O)c(-c2ccc(Cl)cc2Cl)cc2cnc(Nc3ccc(N4CCNCC4)c(F)c3)nc21` [FRAX486]: the “effect on BRI activity (metabolic activity, Alamar blue)” value in the series on A. fumigatus [2] is listed as “potentiating the BRI activity”. Further, in the series with A. fumigatus [3], the “growth, PKI (20 μM)” value is recorded as “++ (++: growth ≥80% compared to no treatment)” and the “growth, PKI (20 μM) + BRI (20 μM)” value is given as “+ (+: growth ≤60% compared to no treatment)”.

In the series on Cryptococcus neoformans (setting [7]), `OC(Cn1cncn1)(Cn1cncn1)c1ccc(F)cc1F` [Fluconazole (FLU)] showed an MIC50 of 1 µg/mL (≈ 3.27 µM). In addition, in the series on Cryptococcus neoformans (setting [8]), the MIC100 is 1 µg/mL (≈ 3.27 µM).

With `Nc1nc(=O)[nH]cc1F` [Flucytosine (FLCY)], in the series on Aspergillus fumigatus (A. fumigatus 10AF), the MIC50 is above 64 µg/mL and the MIC100 was above 64 µg/mL.

Take `CCCCCOc1ccc(-c2cc(-c3ccc(C(=O)N[C@H]4C[C@@H](O)[C@@H](O)NC(=O)[C@@H]5[C@@H](O)[C@@H](C)CN5C(=O)[C@H]([C@H](O)CC(N)=O)NC(=O)[C@H]([C@H](O)[C@@H](O)c5ccc(O)c(OS(=O)(=O)O)c5)NC(=O)[C@@H]5C[C@@H](O)CN5C(=O)[C@H]([C@@H](C)O)NC4=O)cc3)no2)cc1` [Micafungin (MICA)] (X1-[Orn(4R-OH,5R-OH)]T[Hyp][hTyr(3S-OH,4S-OH,3'-OSO3H)][Gln(3R-OH)][Pro(3S-OH,4S-Me)]; lactam 1-C): the MIC50 was above 16 µg/mL in the series with Mucorales Mucor species, at most 0.03 µg/mL against Candida albicans (setting [7]) and at most 0.06 µg/mL in the series on Aspergillus fumigatus (A. fumigatus 21-23). Besides, the results for the MIC100 against Mucorales Mucor species, against Candida albicans (setting [8]) and with Aspergillus fumigatus (A. fumigatus 21-23) were above 16 µg/mL, 0.25 µg/mL (≈ 0.197 µM) and above 16 µg/mL, respectively.

In the case of `Nc1ncnc2c1c(-c1cnc3[nH]ccc3c1)nn2C1CCCC1` [PP121], the “effect on BRI activity (metabolic activity, Alamar blue)” value in the series with A. fumigatus [2] was “potentiating the BRI activity”. Moreover, in the series on A. fumigatus [3], the “growth, PKI (20 μM)” value is “++ (++: growth ≥80% compared to no treatment)” and the “growth, PKI (20 μM) + BRI (20 μM)” value is listed as “+ (+: growth ≤60% compared to no treatment)”.

In the series on Mucorales Mucor species, `CC[C@@H]([C@H](C)O)n1ncn(-c2ccc(N3CCN(c4ccc(OC[C@@H]5CO[C@@](Cn6cncn6)(c6ccc(F)cc6F)C5)cc4)CC3)cc2)c1=O` [Posaconazole (POSA)] yielded an MIC50 of 1 µg/mL (≈ 1.43 µM) and an MIC100 above 16 µg/mL.

For the compound `C[C@@H](c1ncncc1F)[C@](O)(Cn1cncn1)c1ccc(F)cc1F` [VOR, voriconazole], the MIC with A. fumigatus [4] (A. fumigatus VOR^R clinical isolate named in c0 of the row) came to 8 µg/mL (≈ 22.9 µM); with A. fumigatus [4] (A. fumigatus WT (CEA17)) it was 2 µg/mL (≈ 5.73 µM). In series [5], the A. fumigatus killing is around 60%. Further, in the series with A. fumigatus biofilms, the inhibition at 2 µg/mL is around 10%. In addition, the inhibition at 4 µg/mL in the series with A. fumigatus biofilms is around 50%. For the same compound, the growth inhibition entry in [6] was “totally inhibited”.

In the series on Aspergillus fumigatus (A. fumigatus 10AF), `C[C@@H](c1ncncc1F)[C@](O)(Cn1cncn1)c1ccc(F)cc1F` [Voriconazole (VOR)] had an MIC50 of 0.125 µg/mL (≈ 0.358 µM) and an MIC100 of 1 µg/mL (≈ 2.86 µM).

Turning to `COc1ccc2c(c[n+](C)c3c4cc5c(cc4ccc23)OCO5)c1OC` [chelerenthrine], in the series with A. fumigatus [2], the “interaction with BRI in inhibition of metabolic activity (Alamar blue)” value is recorded as “synergize”.

As to LY + 2584702, in the series on A. fumigatus [3], the “growth, PKI (20 μM)” value is “++ (++: growth ≥80% compared to no treatment)” and the “growth, PKI (20 μM) + BRI (20 μM)” value is listed as “++ (++: growth ≥80% compared to no treatment)”.

Take MK + 8353: in the series on A. fumigatus [3], the “growth, PKI (20 μM)” value is “++ (++: growth ≥80% compared to no treatment)” and the “growth, PKI (20 μM) + BRI (20 μM)” value was “++ (++: growth ≥80% compared to no treatment)”.

With PF + 670462, in the series on A. fumigatus [3], the “growth, PKI (20 μM)” value is reported as “++ (++: growth ≥80% compared to no treatment)” and the “growth, PKI (20 μM) + BRI (20 μM)” value is “++ (++: growth ≥80% compared to no treatment)”.

Consider SR + 3677, for which, in the series on A. fumigatus [3], the “growth, PKI (20 μM)” value is given as “++ (++: growth ≥80% compared to no treatment)” and the “growth, PKI (20 μM) + BRI (20 μM)” value was “++ (++: growth ≥80% compared to no treatment)”.

Consider calphostin C, for which the “interaction with BRI in inhibition of metabolic activity (Alamar blue)” value in the series with A. fumigatus [2] was “synergize”.
